In ChEMBL document CHEMBL5046276 (J Med Chem, 2022):
Activity calls are given as the source filed them. The rule behind the calls is not given here.

Assays:
Plasmodium yoelii [1] = assay: Antimalarial activity against blood stage Plasmodium yoelii infected in BALB/c mouse assessed as parasite recrudescence by measuring parasitemia at 60 mg/kg, ip qd for 5 days and measured on 12 to 18 days; format: functional; settings: time 12-18 day
Histone deacetylase 8 = target: T1, Histone deacetylase 8 (Homo sapiens, UniProt Q9BY41); assay: Inhibition of recombinant human full length C-terminal His-tagged HDAC8 expressed in baculovirus-infected Sf9 insect cells using Ac-peptide as substrate incubated for 4 hrs followed by trypsin addition and further incubated for 2 hrs
T1 sequence (Q9BY41 whole entry): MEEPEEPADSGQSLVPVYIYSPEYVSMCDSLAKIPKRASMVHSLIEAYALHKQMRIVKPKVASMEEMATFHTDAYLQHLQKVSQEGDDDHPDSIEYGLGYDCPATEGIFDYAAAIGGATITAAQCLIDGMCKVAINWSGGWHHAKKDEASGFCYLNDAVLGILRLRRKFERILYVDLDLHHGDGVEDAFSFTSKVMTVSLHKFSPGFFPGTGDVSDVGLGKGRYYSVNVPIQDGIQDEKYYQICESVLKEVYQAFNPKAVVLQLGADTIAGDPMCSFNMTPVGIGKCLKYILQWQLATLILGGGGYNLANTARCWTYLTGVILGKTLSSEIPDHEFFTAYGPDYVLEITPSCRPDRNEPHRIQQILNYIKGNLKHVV

[2] = Metabolic stability in mouse liver microsomes assessed as intrinsic clearance at […] incubated for 45 mins in presence of NADPH by LC/MS analysis; format: ADME, Microsome; settings: read-out: CLH
Plasmodium yoelii [3] = assay: Antimalarial activity against blood stage Plasmodium yoelii infected in BALB/c mouse assessed as parasite recrudescence by measuring parasitemia at 60 mg/kg, ip qd for 5 days and measured on 11 to 15 days; format: functional; settings: time 11-15 day
Plasmodium falciparum [4] = assay: Antimalarial activity against ART-resistant Plasmodium falcipuram 6320 harbouring C580Y mutant infected in human RBC assessed as reduction in parasitemia in blood smear by measuring parasite survival ratio at ring stage at upto 700 nM incubated for 6 hrs followed by compound washout and replacement with fresh medium without compounds and measured after 66 hrs by ring stage survival assay; format: functional; settings: dose nM <=700, time 6.0 hrs
Plasmodium falciparum [5] = assay: In vivo inhibition of C-terminal TY1 fused HDAC2 in Plasmodium falcipuram 3D7 assessed as inhibition of parasite growth incubated for 4 hrs followed by compound washout and replacement with fresh medium with compounds measured after 68 hrs by SYBR Green I staining based fluorescence analysis; format: functional, organism-based
[6] = Apparent clearance in BALB/c mouse at 5 mg/kg, ip measured after upto 24 hrs by LC-MS/MS analysis; format: ADME, organism-based; settings: in vivo, read-out: CLz/F (converted)
Plasmodium falciparum [7] = assay: Antimalarial activity against asexual blood stage chloroquine-resistant Plasmodium falciparum Dd2 assessed as parasite growth inhibition incubated for 72 hrs by SYBR Green I staining based fluorescence analysis; format: functional, organism-based; settings: Dd2, 72 h
[8] = Tmax in BALB/c mouse at 5 mg/kg, ip measured after upto 24 hrs by LC-MS/MS analysis; format: ADME, organism-based; settings: in vivo
Plasmodium falciparum [9] = assay: In vivo inhibition of C-terminal TY1 fused HDAC1 in Plasmodium falcipuram 3D7 assessed as inhibition of parasite growth by measuring downregulation of RBC invasion-related genes expression level by RNA-seq analysis; format: functional, organism-based
Histone deacetylase 2 = Histone deacetylase 2 (Homo sapiens, UniProt Q92769); assay: Potency index, ratio of test compound IC50 to Quisinostat IC50 for inhibition of recombinant human full length C-terminal His tagged HDAC2 (1 to 488 residues) expressed in baculovirus-infected Sf9 insect cells using Ac-peptide as substrate incubated for 4 hrs
Histone deacetylase 2, sequence (Q92769 whole entry, the tested form may be a part): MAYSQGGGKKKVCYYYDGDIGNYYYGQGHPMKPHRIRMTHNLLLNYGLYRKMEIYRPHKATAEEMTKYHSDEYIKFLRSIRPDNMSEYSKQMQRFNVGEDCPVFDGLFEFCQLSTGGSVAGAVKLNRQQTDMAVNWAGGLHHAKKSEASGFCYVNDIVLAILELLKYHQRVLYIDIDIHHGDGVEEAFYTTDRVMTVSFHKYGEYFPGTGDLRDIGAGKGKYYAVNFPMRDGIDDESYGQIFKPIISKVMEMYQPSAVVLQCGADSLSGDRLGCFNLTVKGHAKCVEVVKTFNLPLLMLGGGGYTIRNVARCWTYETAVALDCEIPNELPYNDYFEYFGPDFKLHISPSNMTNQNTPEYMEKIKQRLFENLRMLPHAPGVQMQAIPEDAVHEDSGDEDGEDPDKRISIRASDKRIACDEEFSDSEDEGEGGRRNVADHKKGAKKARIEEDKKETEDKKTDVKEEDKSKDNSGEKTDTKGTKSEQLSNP

Plasmodium falciparum [10] = assay: In vivo inhibition of C-terminal glmS fused HDAC1 in Plasmodium falcipuram 3D7 assessed as inhibition of parasite growth by measuring downregulation of RBC invasion-related genes expression level by RNA-seq analysis; format: functional, organism-based
Plasmodium falciparum [11] = assay: Antimalarial activity against blood stage asynchronous Plasmodium falcipuram 3D7 assessed as suppression of parasite reproduction by measuring parasitemia at 10 nM incubated for 24 hrs followed by compound washout and replacement with fresh medium without compounds and measured after 4 days by flow cytometry; format: functional
Plasmodium falciparum [12] = assay: Antimalarial activity against synchronized Plasmodium falcipuram 3D7 infected in human RBC assessed as irreversible inhibition of parasite growth at schizont stage at 40 nM treated 29 to 41 hpi incubated for 12 hrs followed by compound washout and replacement with fresh medium without compounds and measured after 4 days by flow cytometry; format: functional, organism-based
Plasmodium falciparum [13] = assay: Antimalarial activity against asexual blood stage chloroquine-resistant Plasmodium falcipuram GB4 assessed as parasite growth inhibition incubated for 72 hrs by SYBR Green I staining based fluorescence analysis; format: functional, organism-based; settings: GB4, 72 h
Plasmodium falciparum [14] = assay: Antimalarial activity against wild-type Plasmodium falcipuram 3D7 infected in human RBC assessed as reduction in parasitemia in blood smear by measuring parasite survival ratio at ring stage at upto 700 nM incubated for 6 hrs followed by compound washout and replacement with fresh medium without compounds and measured after 66 hrs by ring stage survival assay; format: functional; settings: dose nM <=700, time 6.0 hrs
Plasmodium falciparum [15] = assay: Antimalarial activity against synchronized Plasmodium falcipuram 3D7 infected in human RBC assessed as ring stage parasite killing at 40 nM treated […] and incubated for 12 hrs followed by compound washout and replacement with fresh medium without compounds and measured at 50 hrs post infection by Geimsa staining based microscopy; format: functional, organism-based
Plasmodium falciparum [16] = assay: Antimalarial activity against blood stage asynchronous Plasmodium falcipuram 3D7 assessed as parasite growth inhibition by measuring parasitemia at 10 to 100 nM incubated for 12 to 24 hrs by flow cytometry; format: functional, organism-based; settings: dose 10-100 nM, time 12-24 hrs
[17] = AUC (0 to infinity) in BALB/c mouse at 5 mg/kg, ip measured after upto 24 hrs by LC-MS/MS analysis; format: ADME, organism-based; design: route intraperitoneal, dose 5 mg/kg, time <=24; settings: in vivo
[18] = Toxicity in BALB/c mouse infected with blood stage Plasmodium yoelii assessed as animal death at 60 mg/kg, ip qd for 5 days measured from day 2 post compound treatment; format: organism-based; settings: in vivo, 120 h, time 5 day
Plasmodium falciparum [19] = assay: Antimalarial activity against ART-resistant Plasmodium falcipuram 6218 harbouring C580Y mutant infected in human RBC assessed as reduction in parasitemia in blood smear by measuring parasite survival ratio at ring stage at upto 700 nM incubated for 6 hrs followed by compound washout and replacement with fresh medium without compounds and measured after 66 hrs by ring stage survival assay; format: functional; settings: dose nM <=700, time 6.0 hrs
[20] = target: T2, Histone deacetylase 8 (Homo sapiens) (UniProt Q9BY41); assay: Potency index, ratio of test compound IC50 to Quisinostat IC50 for inhibition of recombinant human full length C-terminal His-tagged HDAC8 expressed in baculovirus-infected Sf9 insect cells using Ac-peptide as substrate incubated for 4 hrs followed by trypsin addition and further incubated for 2 hrs
T2 sequence (whole entry): T1 sequence (Q9BY41 whole entry)

[21] = AUC (0 to last) in BALB/c mouse at 5 mg/kg, ip measured after upto 24 hrs by LC-MS/MS analysis; format: ADME, organism-based; design: route intraperitoneal, dose 5 mg/kg, time <=24; settings: in vivo
Plasmodium falciparum [22] = assay: Antimalarial activity against early stage (II) Plasmodium falciparum NF54 gametocytes transfected with p230p-Luc assessed as reduction in gametocyte viability incubated for 48 hrs by luciferase reporter gene based bioluminescence assay; format: functional, organism-based; settings: NF54, 48 h
Histone deacetylase 3 = Histone deacetylase 3 (Homo sapiens, UniProt O15379); assay: Potency index, ratio of test compound IC50 to Quisinostat IC50 for inhibition of human C-terminal His tagged HDAC3 (1 to 428 residues) expressed in baculovirus-infected Sf9 cells using Ac-peptide as substrate incubated for 4 hrs
Histone deacetylase 3, sequence (O15379 whole entry, the tested form may be a part): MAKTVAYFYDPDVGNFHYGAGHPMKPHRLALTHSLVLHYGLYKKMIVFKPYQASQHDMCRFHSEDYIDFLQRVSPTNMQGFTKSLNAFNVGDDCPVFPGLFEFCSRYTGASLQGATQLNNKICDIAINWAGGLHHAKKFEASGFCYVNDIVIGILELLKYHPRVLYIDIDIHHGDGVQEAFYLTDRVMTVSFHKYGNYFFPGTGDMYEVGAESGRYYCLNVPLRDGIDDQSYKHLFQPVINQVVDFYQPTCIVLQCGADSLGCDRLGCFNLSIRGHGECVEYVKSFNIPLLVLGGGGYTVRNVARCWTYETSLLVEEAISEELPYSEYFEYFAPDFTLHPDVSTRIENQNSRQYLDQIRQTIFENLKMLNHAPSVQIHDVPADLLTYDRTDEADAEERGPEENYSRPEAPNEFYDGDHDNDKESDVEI

## Cl.Cn1cc(CN2CC3(CCN(c4ncc(C(=O)NO)cn4)C3)C2)c2ccc(C#N)cc21
Plasmodium yoelii [1]
  Activity: 0.11%
Histone deacetylase 8
  IC50: 29.9 nM
[2]
  CLint scaled: 68.1 mL/min/kg
Plasmodium yoelii [3]
  Activity: 0.01%
Plasmodium falciparum [4]
  Activity: Active
Plasmodium falciparum [5]
  inhibition: Active
[6]
  CL/F: 130 mL/min/kg
Plasmodium falciparum [7]
  IC50: 1.61 nM
[8]
  Tmax: 15 min
Plasmodium falciparum [9]
  inhibition: Active
Histone deacetylase 2
  Ratio IC50: 3
Plasmodium falciparum [10]
  inhibition: Active
Plasmodium falciparum [11]
  Activity: 100%
Plasmodium falciparum [12]
  Activity: Active
Plasmodium falciparum [13]
  IC50: 3.06 nM
Plasmodium falciparum [14]
  Activity: Active
Plasmodium falciparum [15]
  Activity: Active
Plasmodium falciparum [16]
  Activity: Active
[17]
  AUC(0-inf): 640 ng·h/mL
[18]
  Activity: Non-Toxic
Plasmodium falciparum [19]
  Activity: Active
[20]
  Ratio IC50: 3
[21]
  AUC(0-t) at 24 h: 638 ng·h/mL
Plasmodium falciparum [22]
  IC50: 15.4 nM
Histone deacetylase 3
  Ratio IC50: 3
